Experimental findings from patent US9045461B2, “Phenyl-heteroaryl derivatives and methods of use thereof” (TransTech Pharma, LLC, priority 2010, dated 2015) are described below.

Molecules are shown by their SMILES. Structures can show the parent of a compound that is named as a salt.

In one assay the target is T1, sRAGE binding to S100b (Homo sapiens, UniProt Q15109).
T1 construct: extracellular domain can be isolated by proteolysis of RAGE to generate soluble RAGE (sRAGE) comprised of the V and C domains
T1 sequence (Q15109 23-342 limits assumed): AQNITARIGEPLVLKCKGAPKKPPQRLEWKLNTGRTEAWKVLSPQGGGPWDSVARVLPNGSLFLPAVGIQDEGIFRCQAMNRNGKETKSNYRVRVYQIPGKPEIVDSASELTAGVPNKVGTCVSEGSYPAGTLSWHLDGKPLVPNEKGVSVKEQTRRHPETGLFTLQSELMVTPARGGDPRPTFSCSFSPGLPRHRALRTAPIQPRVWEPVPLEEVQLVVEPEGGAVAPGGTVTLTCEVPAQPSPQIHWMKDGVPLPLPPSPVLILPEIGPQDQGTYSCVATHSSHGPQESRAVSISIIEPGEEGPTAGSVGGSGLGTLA
Put plainly: RAGE binding assay (ELISA), S100b as the RAGE ligand. Conditions: compounds tested in hydrochloride salt form, concentration at which 50% signal has been inhibited. The method in brief:
(§1)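 Ligand (500 ng/well) coated in carbonate buffer pH 9.8 overnight at 4° C and blocked with 1% BSA; test compound (10-100 μM in water, 4% DMSO co-solvent) incubated with sRAGE (6 nM FAC) 1 h at 37° C. Bound sRAGE detected by anti-sRAGE/biotin-anti-mouse/AP-streptavidin with pNPP, A405. IC50 = 50% signal inhibition.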

Assay [1] addresses T2, sRAGE binding to β-amyloid (Homo sapiens, UniProt Q15109).
T2 construct: extracellular domain can be isolated by proteolysis of RAGE to generate soluble RAGE (sRAGE) comprised of the V and C domains
Put plainly: RAGE binding assay (ELISA), β-amyloid as the RAGE ligand. Conditions: compounds tested in hydrochloride salt form, concentration at which 50% signal has been inhibited. The method in brief:
as §1

Assay [2] concerns RAGE signaling in THP-1 cells. Put plainly: Functional assay: TNF-alpha secretion by S100b-stimulated THP-1 cells. Conditions: Homo sapiens; THP-1 cells stimulated with bovine S100b 100 μg/mL; TNF-alpha measured by ELISA 24 hours after stimulation; read-out: EC50 for TNF expression. Format: cell-based. The source says:
Previously the literature has cited that THP-1 cells in response to RAGE ligands secrete TNF alpha (Yeh C-H, et al. Diabetes. Vol. 50, June 2001, pp. 1495-1504). The following assay method may be used to identify compounds of Formula (I) or pharmaceutically acceptable salts thereof which are useful as antagonists of RAGE signaling.
The myeloid cell line, THP-1 (ATTC # TIB-202), may be cultured in RPMI-1640 media (ATCC, Cat #30-2001) supplemented with fetal bovine serum to a final concentration of 10% by volume and Penicillin-Streptomycin (Gibco, Cat #0.15140-122). Alternatively, media may be formulated using RPMI 1640 (Bio-Whitaker #12-702F) supplemented with 2 mM L-glutamine (Gibco #12381-018) adjusted to contain 1.5 g/L sodium bicarbonate (Gibco #25080-094), 4.5 g/L glucose, 10 mM HEPES (Cellgro #25-060-L1) and 1.0 mM sodium pyruvate (Gibco #11360-070) and supplemented with 0.05 mM 2-mercaptoethanol, […] fetal bovine serum, 10% per ATCC instructions. During culture, the culture cells are maintained at a density between 5×10^4 and 1×10^6 viable cells/mL. […]
The amount of TNF-alpha secreted by the THP-1 cells was measured 24 hours after the addition of the stimulant proteins to the cell culture using a commercially available ELISA kit (R&D Systems, Minneapolis, Minn. # DY210). […] The plate is read at 450 nm within 30 minutes. […]

T2 sequence (Q15109 23-342 limits assumed): as above

As to `CCCCc1nnc(OC2CCN(C)CC2)cc1-c1ccc(OC2CCCCC2)cc1` [Example 14, 3-Butyl-4-(4-cyclohexyloxy-phenyl)-6-(1-methyl-piperidin-4-yloxy)-pyridazine dihydrochloride], the figures for the IC50 (on sRAGE binding to S100b; in assay [1]) were 810 nM and 820 nM, respectively. Besides, the EC50 in assay [2] is 1260 nM.

Consider `CCCCc1nnc(C(=O)NCC2(O)CCN(C)CC2)cc1-c1ccc(OC2CCCCC2)cc1` [Example 94, 6-Butyl-5-(4-cyclohexyloxy-phenyl)-pyridazine-3-carboxylic acid (4-hydroxy-1-methyl-piperidin-4-ylmethyl)-amide dihydrochloride], for which the IC50 was determined as 2550 nM at sRAGE binding to S100b and 1950 nM in assay [1].

As for `CCCCc1nnc(C(=O)N[C@H]2CC[C@@H](N(C)C)CC2)cc1-c1ccc(OC2CCCCC2)cc1` [Example 95, (±)-(cis)-6-Butyl-5-(4-cyclohexyloxy-phenyl)-pyridazine-3-carboxylic acid (4-dimethylamino-cyclohexyl)-amide dihydrochloride], the values for the 50% inhibitory concentration (IC50) (on sRAGE binding to S100b; in assay [1]) were 690 nM and 1050 nM, respectively.

In the case of `CCCCc1nnc(C(=O)NC2CC3CCC(C2)N3C)cc1-c1ccc(OC2CCCCC2)cc1` (centres unmarked) [Example 96, 6-Butyl-5-(4-cyclohexyloxy-phenyl)-pyridazine-3-carboxylic acid (8-methyl-8-aza-bicyclo[3.2.1]oct-3-yl)-amide dihydrochloride], the IC50 on sRAGE binding to S100b came to 1160 nM; in assay [1], 940 nM.

With `CCCCc1nnc(C(=O)N2CCO[C@@H](CN(C)C)C2)cc1-c1ccc(OC2CCCCC2)cc1` [Example 97, [6-Butyl-5-(4-cyclohexyloxy-phenyl)-pyridazin-3-yl]-((S)-2-dimethylaminomethyl-morpholin-4-yl)-methanone dihydrochloride], the IC50 on sRAGE binding to S100b was 1890 nM; in assay [1] it was 1720 nM.

For `CCCCc1nnc(C(=O)N2CCO[C@H](CN(C)C)C2)cc1-c1ccc(OC2CCCCC2)cc1` [Example 98, [6-Butyl-5-(4-cyclohexyloxy-phenyl)-pyridazin-3-yl]-((R)-2-dimethylaminomethyl-morpholin-4-yl)-methanone dihydrochloride], the IC50 at sRAGE binding to S100b worked out at 1990 nM; in assay [1], 1620 nM.

Turning to `CCCCc1nnc(C(=O)NCC2CN(C)CCC2(F)F)cc1-c1ccc(OC2CCCCC2)cc1` (centres unmarked) [Example 99, 6-Butyl-5-(4-cyclohexyloxy-phenyl)-pyridazine-3-carboxylic acid (4,4-difluoro-1-methyl-piperidin-3-ylmethyl)-amide dihydrochloride], the IC50 was 1820 nM at sRAGE binding to S100b and 1810 nM in assay [1].

On to `CCCCc1nnc(C(=O)NCC2CN(C)CCC2O)cc1-c1ccc(OC2CCCCC2)cc1` (centres unmarked) [Example 100, 6-Butyl-5-(4-cyclohexyloxy-phenyl)-pyridazine-3-carboxylic acid (4-hydroxy-1-methyl-piperidin-3-ylmethyl)-amide dihydrochloride], for which the values for the IC50 (at sRAGE binding to S100b; in assay [1]) were 590 nM and 1160 nM, respectively.

As for `CCCCc1nnc(C(=O)NCC2CN(C)CCC2OC)cc1-c1ccc(OC2CCCCC2)cc1` (centres unmarked) [Example 101, 6-Butyl-5-(4-cyclohexyloxy-phenyl)-pyridazine-3-carboxylic acid (4-methoxy-1-methyl-piperidin-3-ylmethyl)-amide dihydrochloride], the values for the IC50 (on sRAGE binding to S100b; in assay [1]) were 660 nM and 940 nM, respectively.

As to `CCCCc1nnc(C(=O)NCC2CCN(C)CC2)cc1-c1ccc(OC2CCCCC2)cc1` [Example 103, 6-Butyl-5-(4-cyclohexyloxy-phenyl)-pyridazine-3-carboxylic acid (1-methyl-piperidin-4-ylmethyl)-amide dihydrochloride], the half-maximal inhibitory concentration (IC50) came to 1770 nM on sRAGE binding to S100b and 1110 nM in assay [1].

`CCCCc1nnc(C(=O)N2CCC(CN(C)C)C(F)(F)C2)cc1-c1ccc(OC2CCCCC2)cc1` (centres unmarked) [Example 105, [6-Butyl-5-(4-cyclohexyloxy-phenyl)-pyridazin-3-yl]-(4-dimethylaminomethyl-3,3-difluoro-piperidin-1-yl)-methanone dihydrochloride]: the results for the IC50 (on sRAGE binding to S100b; in assay [1]) were 1390 nM and 2120 nM, respectively.

For `CCCCc1nnc(C(=O)N2CCC(O)C(CN(C)C)C2)cc1-c1ccc(OC2CCCCC2)cc1` (centres unmarked) [Example 106, [6-Butyl-5-(4-cyclohexyloxy-phenyl)-pyridazin-3-yl]-(3-dimethylaminomethyl-4-hydroxyoxy-piperidin-1-yl)-methanone dihydrochloride], the values for the IC50 (at sRAGE binding to S100b; in assay [1]) were 2180 nM and 1750 nM, respectively.

In the case of `CCCCc1nnc(C(=O)NCC2=CCN(C)CC2)cc1-c1ccc(OC2CCCCC2)cc1` [Example 108, 6-Butyl-5-(4-cyclohexyloxy-phenyl)-pyridazine-3-carboxylic acid (1-methyl-1,2,3,6-tetrahydro-pyridin-4-ylmethyl)-amide dihydrochloride], the concentration for half-maximal inhibition (IC50) at sRAGE binding to S100b came to 1170 nM; in assay [1] it was 860 nM.

As for `CCCCc1nnc(C(=O)NCC2(F)CCN(C)CC2)cc1-c1ccc(OC2CCCCC2)cc1` [Example 109, 6-Butyl-5-(4-cyclohexyloxy-phenyl)-pyridazine-3-carboxylic acid (4-fluoro-1-methyl-piperidin-4-ylmethyl)-amide dihydrochloride], the figures for the IC50 (at sRAGE binding to S100b; in assay [1]) were 5840 nM and 5830 nM, respectively.

As to `CCCCc1nnc(C(=O)NC2(CO)CCN(C)C2)cc1-c1ccc(OC2CCCCC2)cc1` (centres unmarked) [Example 111, 6-Butyl-5-(4-cyclohexyloxy-phenyl)-pyridazine-3-carboxylic acid (3-hydroxymethyl-1-methyl-pyrrolidin-3-yl)-amide dihydrochloride], the IC50 at sRAGE binding to S100b came out at 2120 nM; in assay [1] it was 2920 nM.

With `CCCCc1nnc(C(=O)N(C)C2CCN(C)CC2)cc1-c1ccc(OC2CCCCC2)cc1` [Example 114, 6-Butyl-5-(4-cyclohexyloxy-phenyl)-pyridazine-3-carboxylic acid methyl-(1-methyl-piperidin-4-yl)-amide dihydrochloride], the IC50 at sRAGE binding to S100b amounted to 1080 nM; in assay [1] it was 970 nM.

For the molecule `CCCCc1nnc(C(=O)N(C2CC2)C2CCN(C)CC2)cc1-c1ccc(OC2CCCCC2)cc1` [Example 115, 6-Butyl-5-(4-cyclohexyloxy-phenyl)-pyridazine-3-carboxylic acid cyclopropyl-(1-methyl-piperidin-4-yl)-amide dihydrochloride], the IC50 at sRAGE binding to S100b is 1120 nM; in assay [1] it was 1000 nM.
